Test results reported in patent US11685746B2, “Heteroaryl compounds for treating Huntington's disease” (PTC THERAPEUTICS, INC., priority 2018, dated 2023).

System: Endogenous Huntingtin Protein
Assay: Endogenous Huntingtin Protein Assay (MSD plates, MW1 or MAB2166 capture antibody)
Assay type: cell-based
Details: Table 1
How it was run: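 Sandwich MSD immunoassay: plates were coated overnight at 4° C with MW1 (expanded polyQ) or MAB2166 capture antibody at 1 μg/mL, then blocked with 5% BSA. Samples were bound overnight at 4° C, followed by rabbit mAb #5656S and SULFO-TAG anti-rabbit detection, each at 0.25 μg/mL for 1 h at room temperature. Signal was read by electrochemiluminescence.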

Q: With `CN(c1nc2sc(-c3ncc(-c4cn[nH]c4)c4cc[nH]c34)nc2s1)C1CC(C)(C)NC(C)(C)C1` [Compound 159, N-methyl-5-[4-(1H-pyrazol-4-yl)-1H-pyrrolo[2,3-c]pyridin-7-yl]-N-(2,2,6,6-tetramethylpiperidin-4-yl)[1,3]thiazolo[5,4-d][1,3]thiazol-2-amine] as the molecule, how does the IC50 read?
A: The IC50 was ≤ 100 nM.

Q: Which IC50 does the source give for `CN(c1nc2sc(-c3nccc4cc[nH]c34)nc2s1)[C@@H]1C[C@H]2CC[C@@H](C1)N2` [Compound 160, N-[(1R,3s,5S)-8-azabicyclo[3.2.1]octan-3-yl]-N-methyl-5-(1H-pyrrolo[2,3-c]pyridin-7-yl)[1,3]thiazolo[5,4-d][1,3]thiazol-2-amine] here?
A: The IC50 was 100 to 500 nM.

Q: `CN(c1nc2sc(-c3ncc(-c4cn[nH]c4)cn3)nc2s1)[C@H]1CCCNC1` [Compound 161, N-methyl-N-[(3S)-piperidin-3-yl]-5-[5-(1H-pyrazol-4-yl)pyrimidin-2-yl][1,3]thiazolo[5,4-d][1,3]thiazol-2-amine] was tested. Which IC50 did it give?
A: The IC50 was 100 to 500 nM.

Q: How did the IC50 turn out when `CN(c1nc2sc(-c3ncc(-c4cn[nH]c4)cn3)nc2s1)C1CC(C)(C)NC(C)(C)C1` [Compound 162, N-methyl-5-[5-(1H-pyrazol-4-yl)pyrimidin-2-yl]-N-(2,2,6,6-tetramethylpiperidin-4-yl)[1,3]thiazolo[5,4-d][1,3]thiazol-2-amine] was run?
A: The IC50 was ≤ 100 nM.

Q: `CN(c1nc2sc(-c3cnc(-c4cn[nH]c4)cn3)nc2s1)C1CC(C)(C)NC(C)(C)C1` [Compound 163, N-methyl-5-[5-(1H-pyrazol-4-yl)pyrazin-2-yl]-N-(2,2,6,6-tetramethylpiperidin-4-yl)[1,3]thiazolo[5,4-d][1,3]thiazol-2-amine] was tested. Which IC50 did it give?
A: Its IC50 is ≤ 100 nM.

Q: With `CN(c1nc2sc(-c3cnc(-c4cn[nH]c4)cn3)nc2s1)[C@@H]1C[C@H]2CC[C@@H](C1)N2` [Compound 164, N-[(1R,3s,5S)-8-azabicyclo[3.2.1]octan-3-yl]-N-methyl-5-[5-(1H-pyrazol-4-yl)pyrazin-2-yl][1,3]thiazolo[5,4-d][1,3]thiazol-2-amine] as the molecule, how does the IC50 read?
A: Its IC50 is ≤ 100 nM.

Q: Which IC50 does the source give for `CCCN1[C@@H]2CC[C@H]1C[C@H](N(C)c1nc3sc(-n4ccc(-c5cn[nH]c5)cc4=O)nc3s1)C2` [Compound 165, 1-(5-{methyl[(1R,3s,5S)-8-propyl-8-azabicyclo[3.2.1]octan-3-yl]amino}[1,3]thiazolo[5,4-d][1,3]thiazol-2-yl)-4-(1H-pyrazol-4-yl)pyridin-2(1H)-one] here?
A: The IC50 was ≤ 100 nM.

Q: For `CCN1[C@@H]2CC[C@H]1C[C@H](N(C)c1nc3sc(-n4ccc(-c5cn[nH]c5)cc4=O)nc3s1)C2` [Compound 166, 1-(5-{[(1R,3s,5S)-8-ethyl-8-azabicyclo[3.2.1]octan-3-yl](methyl)amino}[1,3]thiazolo[5,4-d][1,3]thiazol-2-yl)-4-(1H-pyrazol-4-yl)pyridin-2(1H)-one], which IC50 is on record?
A: Its IC50 is ≤ 100 nM.

Q: How did the IC50 turn out when `CN(c1nc2sc(-c3ccc(-c4cn[nH]c4)nn3)nc2s1)C1CC(C)(C)NC(C)(C)C1` [Compound 167, N-methyl-5-[6-(1H-pyrazol-4-yl)pyridazin-3-yl]-N-(2,2,6,6-tetramethylpiperidin-4-yl)[1,3]thiazolo[5,4-d][1,3]thiazol-2-amine] was run?
A: Its IC50 is 100 to 500 nM.

Q: For `CN(c1nc2sc(-c3ccc(-c4cn[nH]c4)nn3)nc2s1)[C@@H]1C[C@H]2CC[C@@H](C1)N2` [Compound 168, N-[(1R,3s,5S)-8-azabicyclo[3.2.1]octan-3-yl]-N-methyl-5-[6-(1H-pyrazol-4-yl)pyridazin-3-yl][1,3]thiazolo[5,4-d][1,3]thiazol-2-amine], which IC50 is on record?
A: Its IC50 is ≤ 100 nM.

Q: Which IC50 does the source give for `CN(c1nc2sc(-n3ccc(-c4cn[nH]c4)cc3=O)nc2s1)[C@H]1CCCNC1` [Compound 169, 1-(5-{methyl[(3S)-piperidin-3-yl]amino}[1,3]thiazolo[5,4-d][1,3]thiazol-2-yl)-4-(1H-pyrazol-4-yl)pyridin-2(1H)-one] here?
A: Its IC50 is ≤ 100 nM.

Q: Which IC50 does the source give for `CN(c1nc2sc(-n3cnc(-c4cn[nH]c4)c3)nc2s1)[C@@H]1C[C@H]2CC[C@@H](C1)N2` [Compound 170, N-[(1R,3s,5S)-8-azabicyclo[3.2.1]octan-3-yl]-N-methyl-5-[4-(1H-pyrazol-4-yl)-1H-imidazol-1-yl][1,3]thiazolo[5,4-d][1,3]thiazol-2-amine] here?
A: The IC50 was 100 to 500 nM.

Q: For `CN(c1nc2sc(-n3ccc(Br)cc3=O)nc2s1)[C@@H]1C[C@H]2CC[C@@H](C1)N2` [Compound 171, 1-(5-{[(1R,3s,5S)-8-azabicyclo[3.2.1]octan-3-yl](methyl)amino}[1,3]thiazolo[5,4-d][1,3]thiazol-2-yl)-4-bromopyridin-2(1H)-one], which IC50 is on record?
A: Its IC50 is ≤ 100 nM.

Q: How did the IC50 turn out when `CN(c1nc2sc(-n3cnc(-c4cn[nH]c4)cc3=O)nc2s1)[C@@H]1C[C@H]2CC[C@@H](C1)N2` [Compound 172, 3-(5-{[(1R,3s,5S)-8-azabicyclo[3.2.1]octan-3-yl](methyl)amino}[1,3]thiazolo[5,4-d][1,3]thiazol-2-yl)-6-(1H-pyrazol-4-yl)pyrimidin-4(3H)-one] was run?
A: Its IC50 is ≤ 100 nM.

Q: How did the IC50 turn out when `CN(c1nc2sc(-c3ccc(-c4cn[nH]c4)nc3)nc2s1)[C@@H]1C[C@H]2CC[C@@H](C1)N2` [Compound 173, N-[(1R,3s,5S)-8-azabicyclo[3.2.1]octan-3-yl]-N-methyl-5-[6-(1H-pyrazol-4-yl)pyridin-3-yl][1,3]thiazolo[5,4-d][1,3]thiazol-2-amine] was run?
A: The IC50 was ≤ 100 nM.

Q: Which IC50 does the source give for `CN(c1nc2sc(-c3ccc(-c4cn[nH]c4)cn3)nc2s1)[C@@H]1C[C@H]2CC[C@@H](C1)N2` [Compound 174, N-[(1R,3s,5S)-8-azabicyclo[3.2.1]octan-3-yl]-N-methyl-5-[5-(1H-pyrazol-4-yl)pyridin-2-yl][1,3]thiazolo[5,4-d][1,3]thiazol-2-amine] here?
A: The IC50 was ≤ 100 nM.

Q: `CN(c1nc2sc(-c3cnc(-c4cn[nH]c4)nc3)nc2s1)[C@@H]1C[C@H]2CC[C@@H](C1)N2` [Compound 175, N-[(1R,3s,5S)-8-azabicyclo[3.2.1]octan-3-yl]-N-methyl-5-[2-(1H-pyrazol-4-yl)pyrimidin-5-yl][1,3]thiazolo[5,4-d][1,3]thiazol-2-amine] was tested. Which IC50 did it give?
A: Its IC50 is ≤ 100 nM.

Q: For `Cn1cc2cc(-c3nc4sc(N5CC6(CCNCC6)C5)nc4s3)cc(F)c2n1` [Compound 176, 5-[5-(2,7-diazaspiro[3.5]nonan-2-yl)[1,3]thiazolo[5,4-d][1,3]thiazol-2-yl]-7-fluoro-2-methyl-2H-indazole], which IC50 is on record?
A: The IC50 was 100 to 500 nM.

Q: How did the IC50 turn out when `Fc1cc(-c2nc3sc(N4CC5(CCNCC5)C4)nc3s2)c(F)cc1-c1cn[nH]c1` [Compound 177, 2-{5-[2,5-difluoro-4-(1H-pyrazol-4-yl)phenyl][1,3]thiazolo[5,4-d][1,3]thiazol-2-yl}-2,7-diazaspiro[3.5]nonane] was run?
A: Its IC50 is 1000 to 3000 nM.

Q: `CN(c1nc2sc(-n3ccc(-c4cn[nH]c4)cc3=O)nc2s1)[C@@H]1C[C@H]2CC[C@@H](C1)N2C` [Compound 178, 1-(5-{methyl[(1R,3s,5S)-8-methyl-8-azabicyclo[3.2.1]octan-3-yl]amino}[1,3]thiazolo[5,4-d][1,3]thiazol-2-yl)-4-(1H-pyrazol-4-yl)pyridin-2(1H)-one] was tested. Which IC50 did it give?
A: The IC50 was ≤ 100 nM.

Q: For `CN1CCC2(CC1)CCN2c1nc2sc(-c3ncc(-c4cn[nH]c4)cc3O)nc2s1` [Compound 179, 2-[5-(7-methyl-1,7-diazaspiro[3.5]nonan-1-yl)[1,3]thiazolo[5,4-d][1,3]thiazol-2-yl]-5-(1H-pyrazol-4-yl)pyridin-3-ol], which IC50 is on record?
A: The IC50 was ≤ 100 nM.

Q: How did the IC50 turn out when `CC1CC(N(C)c2nc3sc(-n4ccc(-c5cn[nH]c5)cc4=O)nc3s2)CCN1C` (stereo not drawn) [Compound 180, 1-{5-[(1,2-dimethylpiperidin-4-yl)(methyl)amino][1,3]thiazolo[5,4-d][1,3]thiazol-2-yl}-4-(1H-pyrazol-4-yl)pyridin-2(1H)-one] was run?
A: Its IC50 is ≤ 100 nM.

Q: Which IC50 does the source give for `CN(c1nc2sc(-n3ccc(-c4cn[nH]c4)cc3=O)nc2s1)C1CC(C)(C)NC(C)(C)C1` [Compound 181, 1-{5-[methyl(2,2,6,6-tetramethylpiperidin-4-yl)amino][1,3]thiazolo[5,4-d][1,3]thiazol-2-yl}-4-(1H-pyrazol-4-yl)pyridin-2(1H)-one] here?
A: Its IC50 is ≤ 100 nM.

Q: `CC1CC(N(C)c2nc3sc(-c4ncc(-c5cn[nH]c5)cc4O)nc3s2)CCN1C` (stereo not drawn) [Compound 182, 2-{5-[(1,2-dimethylpiperidin-4-yl)(methyl)amino][1,3]thiazolo[5,4-d][1,3]thiazol-2-yl}-5-(1H-pyrazol-4-yl)pyridin-3-ol] was tested. Which IC50 did it give?
A: Its IC50 is ≤ 100 nM.

Q: `CN(c1nc2sc(-c3ccc(-c4cn[nH]c4)c4cc[nH]c34)nc2s1)[C@@H]1C[C@H]2CC[C@@H](C1)N2` [Compound 183, N-[(1R,3s,5S)-8-azabicyclo[3.2.1]octan-3-yl]-N-methyl-5-[4-(1H-pyrazol-4-yl)-1H-indol-7-yl][1,3]thiazolo[5,4-d][1,3]thiazol-2-amine] was tested. Which IC50 did it give?
A: The IC50 was ≤ 100 nM.

Q: `CN(c1nc2sc(-c3ncc(-c4cn[nH]c4)c4cc[nH]c34)nc2s1)[C@@H]1C[C@H]2CC[C@@H](C1)N2` [Compound 184, N-[(1R,3s,5S)-8-azabicyclo[3.2.1]octan-3-yl]-N-methyl-5-[4-(1H-pyrazol-4-yl)-1H-pyrrolo[2,3-c]pyridin-7-yl][1,3]thiazolo[5,4-d][1,3]thiazol-2-amine] was tested. Which IC50 did it give?
A: The IC50 was ≤ 100 nM.

Q: How did the IC50 turn out when `CN(c1nc2sc(-c3ncc(Br)cc3O)nc2s1)[C@@H]1C[C@H]2CC[C@@H](C1)N2` [Compound 185, 2-(5-{[(1R,3s,5S)-8-azabicyclo[3.2.1]octan-3-yl](methyl)amino}[1,3]thiazolo[5,4-d][1,3]thiazol-2-yl)-5-bromopyridin-3-ol] was run?
A: Its IC50 is ≤ 100 nM.

Q: With `CN(c1nc2sc(-c3ncc(Br)cn3)nc2s1)[C@@H]1C[C@H]2CC[C@@H](C1)N2` [Compound 186, N-[(1R,3s,5S)-8-azabicyclo[3.2.1]octan-3-yl]-5-(5-bromopyrimidin-2-yl)-N-methyl[1,3]thiazolo[5,4-d][1,3]thiazol-2-amine] as the molecule, how does the IC50 read?
A: Its IC50 is ≤ 100 nM.

Q: Which IC50 does the source give for `CN(c1nc2sc(-n3ccccc3=O)nc2s1)[C@@H]1C[C@H]2CC[C@@H](C1)N2` [Compound 187, 1-(5-{[(1R,3s,5S)-8-azabicyclo[3.2.1]octan-3-yl](methyl)amino}[1,3]thiazolo[5,4-d][1,3]thiazol-2-yl)pyridin-2(1H)-one] here?
A: The IC50 was 100 to 500 nM.

Q: For `CN(c1nc2sc(-n3ccc(-c4cn[nH]c4)cc3=O)nc2s1)C1CCNCC1` [Compound 188, 1-{5-[methyl(piperidin-4-yl)amino][1,3]thiazolo[5,4-d][1,3]thiazol-2-yl}-4-(1H-pyrazol-4-yl)pyridin-2(1H)-one], which IC50 is on record?
A: The IC50 was ≤ 100 nM.
